Converted amounts (≈) assume the structure as drawn.
Key:
P. alvei = test: Investigation into bacteriostatic or bactericidal effects (Study 2); format: cell-based, Paenibacillus alvei; conditions: conclusion from subculture into fresh media
Experimental: Where there was no growth in a replicate, at the end of one week the culture was plated out for single colonies on the appropriate agar. This was to determine whether the test item had bactericidal activity, where all the bacterial cells are killed, or bacteriostatic action, where the cells are unable to replicate in the presence of the substance, but will grow when it is removed. A further test, where 0.5 ml of the broth was transferred into 4.5 ml fresh broth (giving a 1:10 dilution) was also undertaken. There would still be some Allicin in the broth, but it should be present at a low enough concentration for growth not to be affected. Where growth occurred in the absence of Allicin, the broth was examined microscopically and plated out for single colonies to confirm the identity of the bacterium.

[1] = tested on: Escherichia coli (NCTC 8156); test: Modified Kelsey-Sykes test; format: cell-based; parameters: key: CG = Confluent growth
Source text: Allicin can be used to displace or supplement existing harmful forms of disinfectant/biocide such as chlorine, sodium hypochlorite, ozone and per-acetic acid all of which can have an adverse effect on the environment. UV radiation is also used for disinfection but power and general running costs are high. Laboratory studies have been conducted on our behalf using allicin on aqueous suspensions of bacterial species commonly used as indicators of the effectiveness of water and wastewater disinfection. To this effect, identified isolates from the faecal coliform and streptococcus groups, namely, Escherichia coli (NCTC 8156) and Enterococcus hirae (University of Brighton isolate) were used in all experiments. An aqueous solution of allicin with a nominal concentration of allicin of 1.8 g per litre ie a 0.18% solution was used.
Stock suspensions of Escherichia coli (NCTC 8156) and Enterococcus hirae (University of Brighton isolate) were cultivated in Nutrient Broth No. 2 from freeze dried isolates. Prior to each experiment, serial dilutions of the suspensions were enumerated by the spread plate method on Nutrient Agar and subsequent incubation at 37 deg C.
Initial experimental procedures were based on the methods set out in an established UK protocol (BS 6905: 1987). The Kelsy-Sykes methodology was developed as a guide to the concentrations of disinfectants which may be recommended for use under “dirty” (wastewater/sewage) conditions. It is therefore a suitable means of establishing the effectiveness of a disinfectant against a wastewater containing particulate and dissolved contaminants in addition to micro-organisms.
Therefore, with regard to wastewater/sewage considerations, the protocol was adapted. Under the revised methodology, a sample was taken from the bacterial suspension/biocide mix after the prescribed contact time and plated out onto solid media so that a colony count could be made (see Tables 1 and 2).

Ascosphaera aggregata = test: MIC by broth microdilution, bee pathogens; format: cell-based; conditions: range 1000 ppm to 0.25 ppm
Source text: (§1) We tested allicia (Allisure™ Liquid) activity against several species of entomopathogenic bacteria (Paenibacillus larvae subsp. larvae, Paenibacillus larvae subsp. pulvifaciens) and fungi (Ascosphaera apis and Ascosphaera aggregata) using broth microdilution method to determine minimum inhibitory concentration (MIC) and the agar diffusion test (Kirby-Bauer) to determine zone of inhibition. Bacterial spores were isolated from the diseased honey bee larval samples. […]
(§2) Fungal spores (Ascosphaera apis) were collected from black honey bee mummies and (Ascosphaera aggregata) spores were collected from the diseased leaf cutter bees. […] The fungal colonies were analyzed by microscopic preparations of aerial mycelia and fungal spore cysts. […]
(§3) Positive controls contained the antibiotic Tylosin (Tylan® 50, Elanco Animal Health Inc., IN) and negative controls contained no antibiotics. […] The optical densities of cultures (OD 600) were recorded 24 h and 48 h post inoculation, depending on the growth rate of the microbial species. […] Minimum bactericidal concentration values (NBC) were determined for allicin by plating out 100 μl of bacterial cultures derived from the MIC assay. […]

Ascosphaera apis = test: MIC by broth microdilution, bee pathogens; format: cell-based; conditions: range 1000 ppm to 0.25 ppm
Source text: as §1, §2, §3

[2] = allicin conc. 0.9 % (w/v), 10 mins
[3] = allicin conc. 0.9 % (w/v), 20 mins
[4] = allicin conc. 0.9 % (w/v), 30 mins
[5] = allicin conc. 1.08 % (w/v), 10 mins
[6] = allicin conc. 1.08 % (w/v), 20 mins
[7] = allicin conc. 1.26 % (w/v), 10 mins
[8] = allicin conc. 1.26 % (w/v), 20 mins
[9] = allicin conc. 1.62 % (w/v), 10 mins
[10] = allicin conc. 1.62 % (w/v), 20 mins

C=CCS[S+]([O-])CC=C (centres unmarked) [allicin, Allicin]
bacteriostatic or bactericidal effect (P. alvei): did not kill all bacteria
Numbers of colony forming units killed [1, 2]: CG
Percentage reduction in colony forming units [1, 2]: CG
Numbers of colony forming units killed [1, 3]: CG
Percentage reduction in colony forming units [1, 3]: CG
Numbers of colony forming units killed [1, 4]: CG
Percentage reduction in colony forming units [1, 4]: CG
Numbers of colony forming units killed [1, 5]: CG
Percentage reduction in colony forming units [1, 5]: CG
Numbers of colony forming units killed [1, 6]: CG
Percentage reduction in colony forming units [1, 6]: CG
Percentage reduction in colony forming units ([1]; allicin conc. 1.08 % (w/v), 30 mins): 94%
Numbers of colony forming units killed [1, 7]: CG
Percentage reduction in colony forming units [1, 7]: CG
Numbers of colony forming units killed [1, 8]: CG
Percentage reduction in colony forming units [1, 8]: CG
Percentage reduction in colony forming units ([1]; allicin conc. 1.26 % (w/v), 30 mins): 97%
Percentage reduction in colony forming units ([1]; allicin conc. 1.4 % (w/v), 10 mins): CG
Percentage reduction in colony forming units ([1]; allicin conc. 1.4 % (w/v), 20 mins): CG
Percentage reduction in colony forming units ([1]; allicin conc. 1.4 % (w/v), 30 mins): 89%
Numbers of colony forming units killed ([1]; allicin conc. 1.44 % (w/v), 10 mins): CG
Numbers of colony forming units killed ([1]; allicin conc. 1.44 % (w/v), 20 mins): CG
Numbers of colony forming units killed [1, 9]: CG
Percentage reduction in colony forming units [1, 9]: CG
Numbers of colony forming units killed [1, 10]: CG
Percentage reduction in colony forming units [1, 10]: CG
Percentage reduction in colony forming units ([1]; allicin conc. 1.62 % (w/v), 30 mins): 83%
MIC (Ascosphaera aggregata): 250 µg/mL (≈ 1540 µM)
MIC (Ascosphaera apis): 250 µg/mL (≈ 1540 µM)

Source: patent publication US20090275667A1, “USE OF ALLICIN AS PRESERVATIVE, AS DISINFECTANT, AS ANTIMICROBIAL OR AS BIOCIDAL AGENT” (Stone Island Holdings Ltd, priority 2003, published 2009)
